Columns and labels:
Type in all cases: in vivo
Cyperus iria = assay: Greenhouse pot test, post emergence treatment, herbicidal activity against CYPIR; settings: scale 0 to 100
Echinochloa crus-galli = assay: Greenhouse pot test, post emergence treatment, herbicidal activity against ECHCG; settings: scale 0 to 100
Description: (§1) Synergism can be described as an interaction where the combined effect of two or more compounds is greater than the sum of the individual effects of each of the compounds. The presence of a synergistic effect in terms of percent control, between two mixing partners (X and Y) can be calculated using the Colby equation (Colby, S. R., 1967, Calculating Synergistic and Antagonistic Responses in Herbicide Combinations, Weeds, 15, 21-22):
(§2) When the observed combined control effect is greater than the expected (calculated) combined control effect (E), then the combined effect is synergistic.
(§3) However, the weed control afforded by the compounds, mixtures or compositions is not limited to these species. The analysis of synergism or antagonism between the mixtures or compositions was determined using Colby's equation.
The culture containers used were plastic flowerpots containing loamy sand with approximately 3.0% of humus as the substrate. The seeds of the test plants were sown separately for each species and/or resistant biotype. For the pre-emergence treatment, the active ingredients, which had been suspended or emulsified in water, were applied directly after sowing by means of finely distributing nozzles. The containers were irrigated gently to promote germination and growth and subsequently covered with transparent plastic hoods until the plants had rooted. This cover caused uniform germination of the test plants, unless this had been impaired by the active ingredients. For the post-emergence treatment, the test plants were first grown to a height of 3 to 15 cm, depending on the plant habit, and only then treated with the active ingredients which had been suspended or emulsified in water. For this purpose, the test plants were either sown directly and grown in the same containers, or they were first grown separately as seedlings and transplanted into the test containers a few days prior to treatment. […] During this time, the plants were tended, and their response to the individual treatments was evaluated. […]

Abutilon theophrasti = assay: Greenhouse pot test, post emergence treatment, herbicidal activity against ABUTH; settings: scale 0 to 100
Description: as §1, §2, §3
(§4) The culture containers used were plastic flowerpots containing loamy sand with approximately 3.0% of humus as the substrate. The seeds of the test plants were sown separately for each species and/or resistant biotype. For the pre-emergence treatment, the active ingredients, which had been suspended or emulsified in water, were applied directly after sowing by means of finely distributing nozzles. The containers were irrigated gently to promote germination and growth and subsequently covered with transparent plastic hoods until the plants had rooted. This cover caused uniform germination of the test plants, unless this had been impaired by the active ingredients. For the post-emergence treatment, the test plants were first grown to a height of 3 to 15 cm, depending on the plant habit, and only then treated with the active ingredients which had been suspended or emulsified in water. For this purpose, the test plants were either sown directly and grown in the same containers, or they were first grown separately as seedlings and transplanted into the test containers a few days prior to treatment. Depending on the species, the plants were kept at 10-25 ° C.or 20-35° C., respectively. The test period extended to 20 days after treatment. During this time, the plants were tended, and their response to the individual treatments was evaluated. The evaluation was carried out by using a scale from 0 to 100. 100 means no emergence of the plants or complete destruction of at least the above-ground parts, and 0 means no damage, or normal course of growth. Data shown are the mean of two replications.
• L-Glufosinate: 5% EC formulation • Saflufenacil: 342 g/l SC formulation • Compound II-89: 5% EC formulation (Compound II-89: ethyl [3-[2-chloro-4-fluoro-5-(1-methyl-6-trifluoromethyl-2,4-dioxo-1,2,3,4-tetrahydropyrimidin-3-yl)phenoxy]-2-pyridyloxy]acetate) • Trifludimoxazin: 500 g/l SC formulation • Pyroxasulfone: 85% WG formulation • Pethoxamid: 5% EC formulation • Sulfentrazone: 480 g/l SC formulation Weeds in the Study: […]

Avena fatua = assay: Greenhouse pot test, post emergence treatment, herbicidal activity against AVEFA; settings: scale 0 to 100
Description: as §1, §2, §3
as §4, with “replications. […]” for “replications.”

[1] = system: Erigeron Canadensis, Conyza canadensis; assay: Greenhouse pot test, post emergence treatment, herbicidal activity against ERICA; settings: L-Glufosinate 75 g ai/ha, scale 0 to 100

CCOC(=O)COc1ncccc1Oc1cc(-n2c(=O)cc(C(F)(F)F)n(C)c2=O)c(F)cc1Cl [Compound II-89, ethyl [3-[2-chloro-4-fluoro-5-(1-methyl-6-trifluoromethyl-2,4-dioxo-1,2,3,4-tetrahydropyrimidin-3-yl)phenoxy]-2-pyridyloxy]acetate] was tested, and the “Herbicidal activity against CYPIR, Found” value (Cyperus iria; Compound II-89 0.25 g ai/ha) was 0.

CP(=O)(O)CC[C@H](N)C(=O)O [L-Glufosinate, (2S)-2-amino-4-[hydroxy(methyl)phosphinoyl]butyric acid] was tested, and the “Herbicidal activity against ECHCG, Found” value (Echinochloa crus-galli; L-Glufosinate 200 g ai/ha) was 0, the “Herbicidal activity against ECHCG, Found” value (Echinochloa crus-galli; L-Glufosinate 400 g ai/ha) was 65 and the “Herbicidal activity against CYPIR, Found” value (Cyperus iria; L-Glufosinate 200 g ai/ha) was 0. The “Herbicidal activity against ABUTH, Found” value (Abutilon theophrasti; L-Glufosinate 75 g ai/ha) was 0, the “Herbicidal activity against ABUTH, Found” value (Abutilon theophrasti; L-Glufosinate 150 g ai/ha) was 55 and the “Herbicidal activity against ABUTH, Found” value (Abutilon theophrasti; L-Glufosinate 200 g ai/ha) was 65. For the same compound, the “Herbicidal activity against AVEFA, Found” value (Avena fatua; L-Glufosinate 75 g ai/ha) was 0, the “Herbicidal activity against AVEFA, Found” value (Avena fatua; L-Glufosinate 150 g ai/ha) was 0 and the “Herbicidal activity against ERICA, Found” value [1] was 90.

For CCOCCN(C(=O)CCl)C(=C(C)C)c1ccccc1 [Pethoxamid, pethoxamid], the “Herbicidal activity against ABUTH, Found” value (Abutilon theophrasti; Pethoxamid 50 g ai/ha) was 0, the “Herbicidal activity against ABUTH, Found” value (Abutilon theophrasti; Pethoxamid 100 g ai/ha) was 0 and the “Herbicidal activity against AVEFA, Found” value (Avena fatua; Pethoxamid 50 g ai/ha) was 0. The “Herbicidal activity against AVEFA, Found” value (Avena fatua; Pethoxamid 100 g ai/ha) was 0.

C#CCN1C(=O)C(F)(F)Oc2cc(F)c(-n3c(=O)n(C)c(=S)n(C)c3=O)cc21 [Trifludimoxazin, trifludimoxazin] was tested, and the “Herbicidal activity against ECHCG, Found” value (Echinochloa crus-galli; Trifludimoxazin 0.25 g ai/ha) was 10.

Source: patent US12262716B2, “Herbicidal mixtures comprising L-glufosinate and their use in soybean cultures” (BASF SE, priority 2017, dated 2025)
